Measurements as given in PMC6877102, “A squalamine derivative, NV669, as a novel PTP1B inhibitor: in vitro and in vivo effects on pancreatic and hepatic tumor growth” (Oncotarget, 2019).

Target: T1, Protein Tyrosine Phosphatase 1B (PTP1B) (Homo sapiens, UniProt P18031)
T1 construct: gene PTPN1; residues 1-322, C-terminal deletion
T1 sequence (P18031 1-322): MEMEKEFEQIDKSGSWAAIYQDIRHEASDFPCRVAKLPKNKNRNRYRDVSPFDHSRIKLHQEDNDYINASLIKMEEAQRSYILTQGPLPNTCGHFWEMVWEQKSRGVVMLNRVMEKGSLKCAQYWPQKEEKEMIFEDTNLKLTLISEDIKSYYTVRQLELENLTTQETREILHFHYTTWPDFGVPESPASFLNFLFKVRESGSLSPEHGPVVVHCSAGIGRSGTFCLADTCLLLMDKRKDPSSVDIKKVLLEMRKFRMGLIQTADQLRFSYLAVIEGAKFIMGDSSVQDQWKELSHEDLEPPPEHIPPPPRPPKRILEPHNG
Assay: Malachite green phosphate release assay with IR5 phosphopeptide on recombinant human PTP1B
Assay type: biochemical

Q: With `CC(C)CCC[C@@H](C)[C@H]1CCC2C3C[C@@H](O)C4=C[C@@H](NCCCNCCCCNCCCN)CC[C@]4(C)C3CC[C@@]21C` (some centres unmarked) [NV669] as the compound, how does the “Malachite green phosphate release assay with IR5 phosphopeptide on recombinant h” value read?
A: we found that NV669 blocked significantly in vitro PTP1B activity in a dose- and time-dependent manner

Q: For `CC(C)CCC[C@@H](C)[C@H]1CC[C@H]2[C@@H]3C[C@@H](NCCCNCCCCNCCCN)[C@H]4C[C@@H](O)CC[C@]4(C)[C@H]3CC[C@]12C` [claramine], which “Malachite green phosphate release assay with IR5 phosphopeptide on recombinant h” value is on record?
A: Like claramine (a PTP1B inhibitor used here as positive control), we found that NV669 blocked significantly in vitro PTP1B activity
